6 molecules from patent US9486506B2 (Novo Nordisk A/S, priority 2011, dated 2016) can be followed below.

The structures appear in SMILES notation. Numbered stars: 1 amine (or outer) side, 2 acyl side, 3 side chain; on linkers, the order of the positions; unused ones are H or OH. Side chains are listed from the residue outwards. Peptide text beside a SMILES is read from it. * marks the point of attachment. C16 diacid = O=C(O)CCCCCCCCCCCCCCC(=O)*; γGlu = O=C(O)[C@H](CCC(=O)[*:2])N[*:1]; AEEA = NCCOCCOCC(=O)O

T1 sequence (P47871 26-477): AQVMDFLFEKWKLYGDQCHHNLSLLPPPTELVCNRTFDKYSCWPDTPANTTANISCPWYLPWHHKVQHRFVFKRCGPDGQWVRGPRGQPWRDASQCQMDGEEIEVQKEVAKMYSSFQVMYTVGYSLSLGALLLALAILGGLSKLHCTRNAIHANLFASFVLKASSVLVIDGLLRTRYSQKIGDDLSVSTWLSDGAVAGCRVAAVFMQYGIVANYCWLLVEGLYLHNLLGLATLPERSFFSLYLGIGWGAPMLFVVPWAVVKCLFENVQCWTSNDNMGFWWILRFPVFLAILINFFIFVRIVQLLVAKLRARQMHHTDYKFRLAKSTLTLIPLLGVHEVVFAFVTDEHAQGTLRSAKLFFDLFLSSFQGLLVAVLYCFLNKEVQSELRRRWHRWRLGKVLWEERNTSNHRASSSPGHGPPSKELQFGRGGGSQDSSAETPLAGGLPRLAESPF

This assay addresses T1, glucagon receptor (Homo sapiens, UniProt P47871).
T1 construct: expressed in transfected cells
In words: Assay (I) Glucagon activity (cAMP biosensor, FLIPR). The assay is classed as cell-based.
As a reminder, the EC50 is the concentration at which the effect is half-maximal. Read a low EC50 as higher potency in that assay. Take `CC(C)C[C@H](NC(=O)[C@H](Cc1ccc(O)cc1)NC(=O)[C@H](CCCNC(=N)N)NC(=O)[C@H](CO)NC(=O)[C@H](Cc1ccc(O)cc1)NC(=O)[C@H](CC(=O)O)NC(=O)[C@H](CO)NC(=O)[C@@H](NC(=O)[C@H](Cc1ccccc1)NC(=O)[C@@H](NC(=O)CNC(=O)[C@H](CCC(N)=O)NC(=O)[C@H](CO)NC(=O)[C@@H](N)Cc1c[nH]cn1)[C@@H](C)O)[C@@H](C)O)C(=O)N[C@@H](CCC(=O)O)C(=O)N[C@@H](CO)C(=O)N[C@@H](CCCNC(=N)N)C(=O)N[C@@H](CCCNC(=N)N)C(=O)N[C@@H](C)C(=O)N[C@@H](CCC(N)=O)C(=O)N[C@@H](CCC(=O)O)C(=O)N[C@@H](Cc1ccccc1)C(=O)N[C@H](C(=O)N[C@@H](CCCCNC(=O)CC[C@H](NC(=O)CC[C@H](NC(=O)COCCOCCNC(=O)COCCOCCNC(=O)CC[C@H](NC(=O)CCCCCCCCCCCCCCC(=O)O)C(=O)O)C(=O)O)C(=O)O)C(=O)N[C@@H](Cc1c[nH]c2ccccc12)C(=O)N[C@@H](CC(C)C)C(=O)N[C@@H](CC(C)C)C(=O)N[C@@H](CO)C(=O)N[C@H](C(=O)O)[C@@H](C)O)C(C)C` [Example 71, N^ε24-[(4S)-4-carboxy-4-[[(4S)-4-carboxy-4-[[2-[2-[2-[[2-[2-[2-[[(4S)-4-carboxy-4-(15-carboxypentadecanoylamino)butanoyl]amino]ethoxy]ethoxy]acetyl]amino]ethoxy]ethoxy]acetyl]amino]butanoyl]amino]butanoyl]-[Arg12,Glu15,Glu21,Lys24,Leu27,Ser28]-Glucagon] (H-HSQGTFTSDYSRYLESRRAQEFVK([γGlu-γGlu-AEEA-AEEA-γGlu-C16 diacid])WLLST-OH): a half-maximal response (EC50) required 0.072 nM. Molecule `CC(C)C[C@H](NC(=O)[C@H](Cc1ccc(O)cc1)NC(=O)[C@H](CCCNC(=N)N)NC(=O)[C@H](CO)NC(=O)[C@H](Cc1ccc(O)cc1)NC(=O)[C@H](CC(=O)O)NC(=O)[C@H](CO)NC(=O)[C@@H](NC(=O)[C@H](Cc1ccccc1)NC(=O)[C@@H](NC(=O)CNC(=O)[C@H](CCC(N)=O)NC(=O)[C@H](CO)NC(=O)[C@@H](N)Cc1c[nH]cn1)[C@@H](C)O)[C@@H](C)O)C(=O)N[C@@H](CC(=O)O)C(=O)N[C@@H](C)C(=O)N[C@@H](CCCNC(=N)N)C(=O)N[C@@H](CCCNC(=N)N)C(=O)N[C@@H](C)C(=O)N[C@@H](CCC(N)=O)C(=O)N[C@@H](CC(=O)O)C(=O)N[C@@H](Cc1ccccc1)C(=O)N[C@H](C(=O)N[C@@H](CCCCNC(=O)CC[C@H](NC(=O)CC[C@H](NC(=O)CC[C@H](NC(=O)CC[C@H](NC(=O)CCCCCCCCCCCCCCC(=O)O)C(=O)O)C(=O)O)C(=O)O)C(=O)O)C(=O)N[C@@H](Cc1c[nH]c2ccccc12)C(=O)N[C@@H](CC(C)C)C(=O)N[C@@H](CC(C)C)C(=O)N[C@@H](CO)C(=O)N[C@H](C(=O)O)[C@@H](C)O)C(C)C` [Example 73, N^ε24-[(4S)-4-carboxy-4-[[(4S)-4-carboxy-4-[[(4S)-4-carboxy-4-[[(4S)-4-carboxy-4-(15-carboxypentadecanoylamino)butanoyl]amino]butanoyl]amino]butanoyl]amino]butanoyl]-[Arg12,Ala16,Lys24,Leu27,Ser28]-Glucagon] (H-HSQGTFTSDYSRYLDARRAQDFVK([γGlu-γGlu-γGlu-γGlu-C16 diacid])WLLST-OH) returned an EC50 of 0.106 nM. Next, `CC(C)C[C@H](NC(=O)[C@H](CC(=O)O)NC(=O)[C@H](CC(C)C)NC(=O)[C@H](Cc1ccc(O)cc1)NC(=O)[C@H](CCCNC(=N)N)NC(=O)[C@H](CO)NC(=O)[C@H](Cc1ccc(O)cc1)NC(=O)[C@H](CC(=O)O)NC(=O)[C@H](CO)NC(=O)[C@@H](NC(=O)[C@H](Cc1ccccc1)NC(=O)[C@@H](NC(=O)CNC(=O)[C@H](CCC(N)=O)NC(=O)[C@H](CO)NC(=O)[C@@H](N)Cc1c[nH]cn1)[C@@H](C)O)[C@@H](C)O)C(=O)N[C@@H](CCCNC(=N)N)C(=O)N[C@@H](CCCNC(=N)N)C(=O)N[C@@H](C)C(=O)N[C@@H](CCC(N)=O)C(=O)N[C@@H](CC(=O)O)C(=O)N[C@@H](Cc1ccccc1)C(=O)N[C@H](C(=O)N[C@@H](CCCCNC(=O)CC[C@H](NC(=O)CC[C@H](NC(=O)CC[C@H](NC(=O)CC[C@H](NC(=O)CCCCCCCCCCCCCCC(=O)O)C(=O)O)C(=O)O)C(=O)O)C(=O)O)C(=O)N[C@@H](Cc1c[nH]c2ccccc12)C(=O)N[C@@H](CC(C)C)C(=O)N[C@@H](CC(C)C)C(=O)N[C@@H](CO)C(=O)N[C@H](C(=O)O)[C@@H](C)O)C(C)C` [Example 74, N^ε24-[(4S)-4-carboxy-4-[[(4S)-4-carboxy-4-[[(4S)-4-carboxy-4-[[(4S)-4-carboxy-4-(15-carboxypentadecanoylamino)butanoyl]amino]butanoyl]amino]butanoyl]amino]butanoyl]-[Arg12,Leu16,Lys24,Leu27,Ser28]-Glucagon] (H-HSQGTFTSDYSRYLDLRRAQDFVK([γGlu-γGlu-γGlu-γGlu-C16 diacid])WLLST-OH): 0.109 nM. The result for `CC(C)C[C@H](NC(=O)[C@H](Cc1c[nH]c2ccccc12)NC(=O)[C@H](CCCCNC(=O)CC[C@H](NC(=O)CC[C@H](NC(=O)COCCOCCNC(=O)COCCOCCNC(=O)CC[C@H](NC(=O)CCCCCCCCCCCCCCC(=O)O)C(=O)O)C(=O)O)C(=O)O)NC(=O)[C@@H](NC(=O)[C@H](Cc1ccccc1)NC(=O)[C@H](CC(=O)O)NC(=O)[C@H](CCC(N)=O)NC(=O)[C@H](C)NC(=O)[C@H](CCCNC(=N)N)NC(=O)[C@H](CCCNC(=N)N)NC(=O)[C@@H](NC(=O)[C@H](CC(=O)O)NC(=O)[C@H](CC(C)C)NC(=O)[C@H](Cc1ccc(O)cc1)NC(=O)[C@H](CCCCN)NC(=O)[C@H](CO)NC(=O)[C@H](Cc1ccc(O)cc1)NC(=O)[C@H](CC(=O)O)NC(=O)[C@H](CO)NC(=O)[C@@H](NC(=O)[C@H](Cc1ccccc1)NC(=O)[C@@H](NC(=O)CNC(=O)[C@H](CCC(N)=O)NC(=O)[C@H](CO)NC(=O)[C@@H](N)Cc1c[nH]cn1)[C@@H](C)O)[C@@H](C)O)[C@@H](C)O)C(C)C)C(=O)N[C@@H](CC(C)C)C(=O)N[C@@H](CO)C(=O)N[C@H](C(=O)O)[C@@H](C)O` [Example 81, N^ε24-[(4S)-4-carboxy-4-[[(4S)-4-carboxy-4-[[2-[2-[2-[[2-[2-[2-[[(4S)-4-carboxy-4-(15-carboxypentadecanoylamino)butanoyl]amino]ethoxy]ethoxy]acetyl]amino]ethoxy]ethoxy]acetyl]amino]butanoyl]amino]butanoyl]-[Thr16,Lys24,Leu27,Ser28]-Glucagon] reads 0.017 nM; that for `CC(C)C[C@H](NC(=O)[C@H](Cc1c[nH]c2ccccc12)NC(=O)[C@H](CCCCNC(=O)CC[C@H](NC(=O)CC[C@H](NC(=O)COCCOCCNC(=O)COCCOCCNC(=O)CC[C@H](NC(=O)CCCCCCCCCCCCCCC(=O)O)C(=O)O)C(=O)O)C(=O)O)NC(=O)[C@@H](NC(=O)[C@H](Cc1ccccc1)NC(=O)[C@H](CC(=O)O)NC(=O)[C@H](CCC(N)=O)NC(=O)[C@H](C)NC(=O)[C@H](CCCNC(=N)N)NC(=O)[C@H](CCCNC(=N)N)NC(=O)[C@@H](NC(=O)[C@H](CC(=O)O)NC(=O)[C@H](CC(C)C)NC(=O)[C@H](Cc1ccc(O)cc1)NC(=O)[C@H](CCCNC(=N)N)NC(=O)[C@H](CO)NC(=O)[C@H](Cc1ccc(O)cc1)NC(=O)[C@H](CC(=O)O)NC(=O)[C@H](CO)NC(=O)[C@@H](NC(=O)[C@H](Cc1ccccc1)NC(=O)[C@@H](NC(=O)CNC(=O)[C@H](CCC(N)=O)NC(=O)[C@H](CO)NC(=O)[C@@H](N)Cc1c[nH]cn1)[C@@H](C)O)[C@@H](C)O)[C@@H](C)O)C(C)C)C(=O)N[C@@H](CC(C)C)C(=O)N[C@@H](CO)C(=O)N[C@H](C(=O)O)[C@@H](C)O` [Example 82, N^ε24-[(4S)-4-carboxy-4-[[(4S)-4-carboxy-4-[[2-[2-[2-[[2-[2-[2-[[(4S)-4-carboxy-4-(15-carboxypentadecanoylamino)butanoyl]amino]ethoxy]ethoxy]acetyl]amino]ethoxy]ethoxy]acetyl]amino]butanoyl]amino]butanoyl]-[Arg12,Thr16,Lys24,Leu27,Ser28]-Glucagon] (H-HSQGTFTSDYSRYLDTRRAQDFVK([γGlu-γGlu-AEEA-AEEA-γGlu-C16 diacid])WLLST-OH), 0.025 nM. As to `CC(C)C[C@H](NC(=O)[C@H](CC(=O)O)NC(=O)[C@H](CC(C)C)NC(=O)[C@H](Cc1ccc(O)cc1)NC(=O)[C@H](CCCNC(=N)N)NC(=O)[C@H](CO)NC(=O)[C@H](Cc1ccc(O)cc1)NC(=O)[C@H](CC(=O)O)NC(=O)[C@H](CO)NC(=O)[C@@H](NC(=O)[C@H](Cc1ccccc1)NC(=O)[C@@H](NC(=O)CNC(=O)[C@H](CCC(N)=O)NC(=O)[C@H](CO)NC(=O)[C@@H](N)Cc1c[nH]cn1)[C@@H](C)O)[C@@H](C)O)C(=O)N[C@@H](CCCNC(=N)N)C(=O)N[C@@H](CCCNC(=N)N)C(=O)N[C@@H](C)C(=O)N[C@@H](CCC(N)=O)C(=O)N[C@@H](CC(=O)O)C(=O)N[C@@H](Cc1ccccc1)C(=O)N[C@H](C(=O)N[C@@H](CCCCNC(=O)CC[C@H](NC(=O)CC[C@H](NC(=O)CC[C@H](NC(=O)CCCCCCCCCCCCCCC(=O)O)C(=O)O)C(=O)O)C(=O)O)C(=O)N[C@@H](Cc1c[nH]c2ccccc12)C(=O)N[C@@H](CC(C)C)C(=O)N[C@@H](CC(C)C)C(=O)N[C@@H](CO)C(=O)N[C@H](C(=O)O)[C@@H](C)O)C(C)C` [Example 91, N^ε24-[(4S)-4-carboxy-4-[[(4S)-4-carboxy-4-[[(4S)-4-carboxy-4-(15-carboxypentadecanoylamino)butanoyl]amino]butanoyl]amino]butanoyl]-[Arg12,Leu16,Lys24,Leu27,Ser28]-Glucagon] (H-HSQGTFTSDYSRYLDLRRAQDFVK([γGlu-γGlu-γGlu-C16 diacid])WLLST-OH), the EC50 amounted to 0.027 nM.
